Ki and IC50 data for 22 molecules are collected here from patent US20100286145A1, “ISOPHTHALAMIDE DERIVATIVES INHIBITING BETA-SECRETASE ACTIVITY” (CoMentis, Inc., priority 2007, published 2010).

Bounds are passed on as bounds.

The target of test [1] is memapsin 2 (Homo sapiens, UniProt P56817). As to the kind of experiment: Inhibition of memapsin 2 beta-secretase activity (fluorogenic substrate FS-2). It is filed as biochemical. The settings on record: memapsin 2, pH 4, 37° C., 20 minutes pre-incubation; read-out: M2Ki. In outline:
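Kinetic fluorogenic assay: hydrolysis of the MCA/DNP-labelled APP Swedish-variant peptide FS-2 monitored as fluorescence rise at 37° C, pH 4, after 20 min enzyme–compound preincubation. Relative rates fitted with a tight-binding inhibitor model.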

In test [2] the test system is Aβ production in Chinese hamster ovary cells that over-express human APP695 with the London and Swedish mutations. In words: Cellular Aβ IC50 determination (Aβ40 sandwich ELISA). It is filed as cell-based. The settings on record: Cricetulus griseus; cellular Aβ production; read-out: IC50. The procedure: The potency of compounds against memapsin 2 activity was determined in a cellular assay of Aβ production. […] Chinese hamster ovary cells that over-express human APP695 with the London and Swedish mutations were seeded in multi-well plates at 10% confluency. Compounds are dissolved in DMSO to concentrations near 1 mM, and diluted into culture media to a final concentration near 4 μM (final 0.4% DMSO). […] Aliquots were removed and assayed for Aβ40 content using a sandwich ELISA (BioSource International). Amount of Aβ40 over the range of concentration of compounds, relative to control incubations, were fit to a 4-parameter IC50 model.
(In general: ELISA stands for enzyme-linked immunosorbent assay.)

Sequence of memapsin 2 (P56817 46-501): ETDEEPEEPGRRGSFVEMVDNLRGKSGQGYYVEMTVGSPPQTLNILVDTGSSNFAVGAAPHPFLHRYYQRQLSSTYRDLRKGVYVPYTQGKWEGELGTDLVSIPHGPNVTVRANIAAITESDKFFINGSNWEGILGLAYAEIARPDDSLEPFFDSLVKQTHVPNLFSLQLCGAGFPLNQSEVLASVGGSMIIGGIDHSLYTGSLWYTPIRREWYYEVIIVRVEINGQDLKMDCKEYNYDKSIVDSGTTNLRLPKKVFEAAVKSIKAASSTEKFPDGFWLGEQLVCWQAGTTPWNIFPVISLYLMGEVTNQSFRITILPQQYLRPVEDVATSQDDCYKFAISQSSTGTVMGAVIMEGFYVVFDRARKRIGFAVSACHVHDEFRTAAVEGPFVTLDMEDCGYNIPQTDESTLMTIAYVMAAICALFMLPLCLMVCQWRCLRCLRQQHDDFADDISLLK

As to `Cc1csc(CN(C(=O)c2cccc(C(=O)N[C@@H](Cc3ccccc3)[C@H](O)CNCc3cncc(C(F)(F)F)c3)c2)C2CC2)n1` [Compound 59, N1-cyclopropyl-N3-((2S,3R)-3-hydroxy-1-phenyl-4-((5-(trifluoromethyl)pyridin-3-yl)methylamino)butan-2-yl)-N1-((4-methylthiazol-2-yl)methyl)isophthalamide], the Ki in test [1] was less than 300 nM. Moreover, the concentration for half-maximal inhibition (IC50) in test [2] was less than 1000 nM.
In the same order, the values of `Cc1cc(C(=O)N[C@@H](Cc2ccccc2)[C@H](O)CNCc2ccnc(C(C)C)c2)cc(C(=O)N(C)Cc2nc(C)cs2)c1` [Compound 60, N1-((2S,3R)-3-hydroxy-4-((2-isopropylpyridin-4-yl)methylamino)-1-phenylbutan-2-yl)-N3,5-dimethyl-N3-((4-methylthiazol-2-yl)methyl)isophthalamide] are less than 300 nM and less than 1000 nM.
For `COc1cccc(CNC[C@@H](O)[C@H](Cc2ccccc2)NC(=O)c2cccc(C(=O)N(C)Cc3ccn(C)n3)c2)c1` [Compound 61, N1-((2S,3R)-3-hydroxy-4-(3-methoxybenzylamino)-1-phenylbutan-2-yl)-N3-methyl-N3-((1-methyl-1H-pyrazol-3-yl)methyl)isophthalamide], the Ki in test [1] is less than 300 nM. Moreover, the IC50 in test [2] fell in the range of 1000 to 5000 nM.
The corresponding values for `Cc1csc(CN(C)C(=O)c2cccc(C(=O)N[C@@H](Cc3ccccc3)[C@H](O)CNCc3ccccn3)c2)n1` [Compound 64, N1-((2S,3R)-3-hydroxy-1-phenyl-4-(pyridin-2-ylmethylamino)butan-2-yl)-N3-methyl-N3-((4-methylthiazol-2-yl)methyl)isophthalamide] are greater than 501 nM and 1000 to 5000 nM.
In the same order, the values of `COc1cccc(CNC[C@@H](O)[C@H](Cc2ccccc2)NC(=O)c2cc(C(=O)N(C)Cc3nc(C)cs3)cc(N(C)C)c2)c1` [Compound 65, 5-(dimethylamino)-N1-((2S,3R)-3-hydroxy-4-(3-methoxybenzylamino)-1-phenylbutan-2-yl)-N3-methyl-N3-((4-methylthiazol-2-yl)methyl)isophthalamide] are less than 300 nM and less than 1000 nM.
In the same order, the values of `COc1cccc(CNC[C@@H](O)[C@H](Cc2ccccc2)NC(=O)c2cc(OS(C)(=O)=O)cc(C(=O)N(C)Cc3nc(C)cs3)c2)c1` [Compound 67, 3-((2S,3R)-3-hydroxy-4-(3-methoxybenzylamino)-1-phenylbutan-2-ylcarbamoyl)-5-(methyl((4-methylthiazol-2-yl)methyl)carbamoyl)phenyl methanesulfonate] are less than 300 nM and less than 1000 nM.
On to `Cc1csc(CN(C)C(=O)c2cccc(C(=O)N[C@@H](Cc3ccccc3)[C@H](O)CNCc3cncc(CCC(C)C)c3)c2)n1` [Compound 68, N1-((2S,3R)-3-hydroxy-4-((5-isopentylpyridin-3-yl)methylamino)-1-phenylbutan-2-yl)-N3-methyl-N3-((4-methylthiazol-2-yl)methyl)isophthalamide], for which, in test [1], the Ki is less than 300 nM. Further, the concentration for half-maximal inhibition (IC50) in test [2] was less than 1000 nM.
For `COc1cccc(CNC[C@@H](O)[C@H](Cc2ccccc2)NC(=O)c2cc(OS(C)(=O)=O)cc(C(=O)N[C@H](C)c3ccccc3)c2)c1` [Compound 70, 3-((2S,3R)-3-hydroxy-4-(3-methoxybenzylamino)-1-phenylbutan-2-ylcarbamoyl)-5-((R)-1-phenylethylcarbamoyl)phenyl methanesulfonate], the Ki in test [1] was less than 300 nM. The half-inhibitory concentration (IC50) in test [2] was less than 1000 nM.
In the same order, the values of `Cc1csc(CN(C)C(=O)c2cccc(C(=O)N[C@@H](Cc3ccccc3)[C@H](O)CNCc3cccc(O)c3)c2)n1` [Compound 73, N1-((2S,3R)-3-hydroxy-4-(3-hydroxybenzylamino)-1-phenylbutan-2-yl)-N3-methyl-N3-((4-methylthiazol-2-yl)methyl)isophthalamide] are greater than 501 nM and greater than 5000 nM.
The corresponding values for `Cc1csc(CN(C)C(=O)c2cccc(C(=O)N[C@@H](Cc3ccccc3)[C@H](O)CNCc3cc(NC(=O)OCc4ccccc4)cc(C(C)C)c3)c2)n1` [Compound 74, benzyl 3-(((2R,3S)-2-hydroxy-3-(3-(methyl((4-methylthiazol-2-yl)methyl)carbamoyl)benzamido)-4-phenylbutylamino)methyl)-5-isopropylphenylcarbamate] are less than 300 nM and less than 1000 nM.
For `Cc1csc(CN(C)C(=O)c2cccc(C(=O)N[C@@H](Cc3ccccc3)[C@H](O)CNCc3cc(N)cc(C(C)C)c3)c2)n1` [Compound 75, N1-((2S,3R)-4-(3-amino-5-isopropylbenzylamino)-3-hydroxy-1-phenylbutan-2-yl)-N3-methyl-N3-((4-methylthiazol-2-yl)methyl)isophthalamide], in test [1], the Ki was less than 300 nM. Also, the half-maximal inhibitory concentration (IC50) in test [2] was less than 1000 nM.
The corresponding values for `Cc1csc(CN(C)C(=O)c2cccc(C(=O)N[C@@H](Cc3ccccc3)[C@H](O)CNCc3cccc(C(C)(C)C)c3O)c2)n1` [Compound 77, N1-((2S,3R)-4-(3-tert-butyl-2-hydroxybenzylamino)-3-hydroxy-1-phenylbutan-2-yl)-N3-methyl-N3-((4-methylthiazol-2-yl)methyl)isophthalamide] are less than 300 nM and less than 1000 nM.
As to `COc1cccc(CNC[C@@H](O)[C@H](Cc2ccccc2)NC(=O)c2cc(C(=O)N(C)Cc3nc(C)cs3)cc(-c3ccccc3)c2)c1` [Compound 78, N3-((2S,3R)-3-hydroxy-4-(3-methoxybenzylamino)-1-phenylbutan-2-yl)-N5-methyl-N5-((4-methylthiazol-2-yl)methyl)biphenyl-3,5-dicarboxamide], the Ki in test [1] is less than 300 nM. For the same molecule, the IC50 in test [2] is less than 1000 nM.
In the case of `C[C@@H](NC(=O)c1cc(C(=O)N[C@@H](Cc2ccccc2)[C@H](O)CNCc2cccc(C(C)(C)C)c2O)cc(N(C)S(C)(=O)=O)c1)c1ccccc1` [Compound 79, N1-((2S,3R)-4-(3-tert-butyl-2-hydroxybenzylamino)-3-hydroxy-1-phenylbutan-2-yl)-5-(N-methylmethylsulfonamido)-N3-((R)-1-phenylethyl)isophthalamide], in test [1], the Ki is less than 300 nM. Also, in test [2], the IC50 is less than 1000 nM.
In the same order, the values of `COc1cc(C(=O)NCc2nc(C)cs2)cc(C(=O)N[C@@H](Cc2ccccc2)[C@H](O)CNCc2ccnc(C(C)C)c2)c1` [Compound 83, N1-((2S,3R)-3-hydroxy-4-((2-isopropylpyridin-4-yl)methylamino)-1-phenylbutan-2-yl)-5-methoxy-N3-((4-methylthiazol-2-yl)methyl)isophthalamide] are less than 300 nM and less than 1000 nM.
`COc1cccc(CNC[C@@H](O)[C@H](Cc2ccccc2)NC(=O)c2cc(C(=O)N(C)Cc3nc(C)cs3)cc(-c3ncco3)c2)c1` [Compound 85, N1-((2S,3R)-3-hydroxy-4-(3-methoxybenzylamino)-1-phenylbutan-2-yl)-N3-methyl-N3-((4-methylthiazol-2-yl)methyl)-5-(oxazol-2-yl)isophthalamide]: the Ki in test [1] was less than 300 nM. Besides, the half-inhibitory concentration (IC50) in test [2] is less than 1000 nM.
In the same order, the values of `Cc1csc(CN(C)C(=O)c2cccc(C(=O)N[C@@H](Cc3ccccc3)[C@H](O)CNCc3cncc(C(C)(C)F)c3)c2)n1` [Compound 92, N1-((2S,3R)-4-((5-(2-fluoropropan-2-yl)pyridin-3-yl)methylamino)-3-hydroxy-1-phenylbutan-2-yl)-N3-methyl-N3-((4-methylthiazol-2-yl)methyl)isophthalamide] are less than 300 nM and less than 1000 nM.
Regarding `Cc1csc(CNC(=O)c2cccc(C(=O)N[C@@H](Cc3ccccc3)[C@H](O)CNCc3cc(C(C)C)c(C)nc3C)c2)n1` [Compound 93, N1-((2S,3R)-3-hydroxy-4-((5-isopropyl-2,6-dimethylpyridin-3-yl)methylamino)-1-phenylbutan-2-yl)-N3-((4-methylthiazol-2-yl)methyl)isophthalamide], the Ki in test [1] lay within 301 to 500 nM. In addition, the concentration for half-maximal inhibition (IC50) in test [2] is less than 1000 nM.
The corresponding values for `CNC(=O)c1cc(C(=O)N[C@@H](Cc2ccccc2)[C@H](O)CNCc2cccc(OC)c2)cc(C(=O)N[C@H](C)c2ccccc2)c1` [Compound 94, N1-((2S,3R)-3-hydroxy-4-(3-methoxybenzylamino)-1-phenylbutan-2-yl)-N3-methyl-N5-((R)-1-phenylethyl)benzene-1,3,5-tricarboxamide] are greater than 501 nM and 1000 to 5000 nM.
Take `Cc1coc(CN(C)C(=O)c2cccc(C(=O)N[C@@H](Cc3ccccc3)[C@H](O)CNCc3cncc(C(C)C)c3)c2)n1` [Compound 95, N1-((2S,3R)-3-hydroxy-4-((5-isopropylpyridin-3-yl)methylamino)-1-phenylbutan-2-yl)-N3-methyl-N3-((4-methyloxazol-2-yl)methyl)isophthalamide]: the Ki in test [1] is less than 300 nM. The IC50 in test [2] was less than 1000 nM.
In the same order, the values of `COC(=O)c1cccc(CNC[C@@H](O)[C@H](Cc2ccccc2)NC(=O)c2cc(C(=O)N[C@H](C)c3ccccc3)cc(N(C)S(C)(=O)=O)c2)c1` [Compound 96, methyl 3-(((2R,3S)-2-hydroxy-3-(3-(N-methylmethylsulfonamido)-5-((R)-1-phenylethylcarbamoyl)benzamido)-4-phenylbutylamino)methyl)benzoate] are less than 300 nM and less than 1000 nM.
The corresponding values for `Cc1csc(CN(C)C(=O)c2cccc(C(=O)N[C@@H](Cc3ccccc3)[C@H](O)CNCc3cccc(I)c3)c2)n1` [Compound 97, N1-((2S,3R)-3-hydroxy-4-(3-iodobenzylamino)-1-phenylbutan-2-yl)-N3-methyl-N3-((4-methylthiazol-2-yl)methyl)isophthalamide] are less than 300 nM and less than 1000 nM.

A word on the IC50: it is the concentration that inhibits the measured activity by half.
